US10633354B2, “Substituted tricyclic heterocyclic compounds” (BRISTOL-MYERS SQUIBB COMPANY, priority 2016, dated 2020)

Assays:
S1P1 = target: T1, S1P1 (Homo sapiens, UniProt P21453); experiment: Receptor [35S] GTPγS binding assay (S1P1 GTPγS); type: biochemical; conditions: membranes from S1P1/CHO cells; for S1P1 GTPgS (Ymax): maximal response; for EC50: phosphorylated compounds, read-out: S1P1 GTPgS (EC50)
T1 construct: expressed in transfected cells; host or cells: CHO cells (S1P1/CHO), membranes
T1 sequence (P21453 whole entry): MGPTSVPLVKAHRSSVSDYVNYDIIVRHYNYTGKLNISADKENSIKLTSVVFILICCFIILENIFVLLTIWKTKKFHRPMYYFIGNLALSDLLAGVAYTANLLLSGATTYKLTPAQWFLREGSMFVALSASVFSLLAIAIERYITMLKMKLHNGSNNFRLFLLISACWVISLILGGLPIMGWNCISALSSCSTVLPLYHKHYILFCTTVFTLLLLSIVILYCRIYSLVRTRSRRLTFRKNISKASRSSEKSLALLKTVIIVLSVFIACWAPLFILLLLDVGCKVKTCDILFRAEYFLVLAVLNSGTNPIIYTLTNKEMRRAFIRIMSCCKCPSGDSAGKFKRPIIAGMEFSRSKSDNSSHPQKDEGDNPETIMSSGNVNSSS
Experimental: (§1) The compounds of Formula (I), Formula (II), Formula (III), and Formula (IV), and salts thereof in which R2 is —OH, engage their biological targets (e.g. S1P1) after bioactivation through phosphorylation of the alcohol to provide an active phosphate ester compound of Formula (I), Formula (II), Formula (III), and Formula (IV), or salts thereof, in which R2 is —OP(O)(OH)2. In vitro characterization of biological activity of the examples was conducted on synthetically prepared samples of the phosphorylated compounds.
(§2) Receptor [^35S] GTPyS Binding Assays: (S1P1 GTPyS/S1P3 GTPyS)
(§3) Compounds were loaded in a 384 Falcon v-bottom plate (0.5 μl/well in a 11 point, 3-fold dilution). Membranes prepared from S1Pi/CHO cells or EDG3-Ga15-bla HEK293T cells (EDG3 equivalent S1P3) were added to the compound plate (40 μl/well, final protein 3 μg/well) with MULTIDROP®. [^35S] GTP (1250 Ci/mmol, Perkin Elmer) was diluted in assay buffer: 20 mM HEPES, pH7.5, 10 mM MgCl2, 150 mM NaCl, 1 mM EGTA (ethylene glycol tetraacetic acid), 1 mM DTT (Dithiothreitol), 10 μM GDP, 0.1% fatty acid free BSA, and 10 μg/ml Saponin to 0.4 nM. 40 μl of the [^35S] GTP solution was added to the compound plate with a final concentration of 0.2 nM. The reaction mixture was kept at room temperature for 45 min. At the end of incubation, all the mixtures in the compound plate were transferred to Millipore 384-well FB filter plates via the VELOCITY 11® Vprep liquid handler. The filter plate was washed with water 4 times by using the manifold Embla plate washer and dried at 60° C. for 45 min. MicroScint 20 scintillation fluid (30 μl) was added to each well for counting on the Packard TOPCOUNT®. ECso is defined as the agonist concentration that corresponds to 50% of the Ymax (maximal response) obtained for each individual compound tested.
(§4) A smaller value for GTPyS S1 P1 EC50 value indicated greater activity for the compound in the GTPyS S1P1 binding assay. A larger value for the GTPyS S1 P3 EC50 value indicated less activity in the GTPyS S1 P3 binding assay (Table A).

S1P3 = target: T2, S1P3 (Homo sapiens, UniProt Q99500); experiment: Receptor [35S] GTPγS binding assay (S1P3 GTPγS); type: biochemical; conditions: membranes from EDG3-Ga15-bla HEK293T cells; read-out: S1P3 GTPgS (EC50)
T2 construct: expressed in transfected cells; host or cells: HEK293T cells (EDG3-Ga15-bla), membranes
T2 sequence (Q99500 whole entry): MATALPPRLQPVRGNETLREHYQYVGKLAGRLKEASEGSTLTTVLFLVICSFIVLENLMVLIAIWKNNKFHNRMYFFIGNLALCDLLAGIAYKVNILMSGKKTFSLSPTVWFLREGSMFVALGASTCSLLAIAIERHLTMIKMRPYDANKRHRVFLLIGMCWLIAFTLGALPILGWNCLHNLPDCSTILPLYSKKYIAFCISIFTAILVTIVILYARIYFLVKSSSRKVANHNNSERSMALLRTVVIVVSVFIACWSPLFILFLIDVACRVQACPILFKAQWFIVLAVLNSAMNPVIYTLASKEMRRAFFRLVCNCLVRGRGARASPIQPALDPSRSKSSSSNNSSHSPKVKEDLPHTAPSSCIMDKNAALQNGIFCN
Experimental: as §1, §2, §3, §4

| S1P1 GTPgS (Ymax) (S1P1) | EC50 (S1P1) | EC50 (S1P3) | SMILES |
| --- | --- | --- | --- |
| 98% | 10 nM | > 3000 nM | CCCCCCCc1nc2c(s1)-c1ccc([C@H]3CC[C@](N)(COP(=O)(O)O)C3)cc1CC2 [Example 27] |
| 79% | 19 nM | > 3000 nM | CCCc1nc2c(s1)-c1ccc([C@H]3CC[C@](N)(COP(=O)(O)O)C3)cc1CC2 [Example 28] |
| 58% | 20 nM | > 3000 nM | CCCCSc1nc2c(s1)-c1ccc([C@H]3CC[C@](N)(COP(=O)(O)O)C3)cc1CC2 [Example 31, ((1R,3S)-1-amino-3-(2-(butylthio)-4,5-dihydronaphtho[2,1-d]thiazol-7-yl)cyclopentyl)methyl dihydrogen phosphate] |

Continued, compound first:

| SMILES | S1P1 GTPgS (Ymax) (S1P1) | EC50 (S1P1) | EC50 (S1P3) |
| --- | --- | --- | --- |
| CCCCOCCOc1nc2c(s1)-c1ccc([C@H]3CC[C@](N)(COP(=O)(O)O)C3)cc1CC2 [Example 26, ((1R,3S)-1-amino-3-(2-(2-butoxyethoxy)-4,5-dihydronaphtho[2,1-d]thiazol-7-yl)cyclopentyl)methyl Dihydrogen Phosphate] | 107% | 1 nM | 190 nM |
| CCCCOc1nc2c(s1)-c1ccc([C@H]3CC[C@](N)(COP(=O)(O)O)C3)cc1CC2 [Example 29] | 58% | 30 nM | > 3000 nM |
| CCCCCCOc1nc2c(s1)-c1ccc([C@H]3CC[C@](N)(COP(=O)(O)O)C3)cc1CC2 [Example 30, ((1R,3S)-1-amino-3-(2-(hexyloxy)-4,5-dihydronaphtho[2,1-d]thiazol-7-yl)cyclopentyl) methyl dihydrogen phosphate] | 102% | 12 nM | > 3000 nM |
| CCCCNc1nc2c(s1)-c1ccc([C@H]3CC[C@](N)(COP(=O)(O)O)C3)cc1CC2 [Example 32, ((1R,3S)-1-amino-3-(2-(butylamino)-4,5-dihydronaphtho[2,1-d]thiazol-7-yl)cyclopentyl)methyl dihydrogen phosphate] | 49% | 133 nM | > 3000 nM |
